These results are taken from patent US7772240B2, “Trans-1(6-chloro-3-phenylindan-1-yl)-3,3-dimethylpiperazine” (H. Lundbeck A/S, priority 2003, dated 2010).

The target of one data set is T1, human CYP2D6 (Homo sapiens, UniProt P10635).
T1 construct: purchased BD Biosciences (Gentest) 456217; host or cells: baculovirus/insect cells
As to the kind of experiment: CYP2D6 inhibitor assay (recombinant microsomes, AMMC substrate). The data set is classed as in vitro ADME. To be noted: result in words. As for the experimental part: Principle: The inhibition of human CYP2D6 is assessed using microsomes prepared from baculovirus/insect cells cDNA expressing CYP2D6 as enzyme sources and the specific CYP2D6 substrate AMMC (3-[2-(N,N-diethyl-N-methylammonium)-ethyl]-7-methoxy-4-methylcoumarin). AMMC is O-demethylated to AHMC (3-[2-(N,N-diethylamino)ethyl]-7-hydroxy-4-methylcoumarin) which is detected by measuring appearance of fluorescence.
Microsomes prepared from baculovirus/insect cells cDNA expressing CYP2D6 were obtained from BD Biosciences (Gentest 456217). Fluorescence measured Ex. (405 nm) Em. (465 nm) by a SpectroFluor Plus Plate Reader (Tecan Nordic). Incubations with the recombinant CYP2D6 micrsomes contained 1.5 pmol of the recombinant CYP2D6 in 0.2 ml total volume 100 mM phosphate buffer at pH 7.4 containing […] AMMC (3-[2-(N,N-diethyl-N-methylammonium)-ethyl]-7-methoxy-4-methylcoumarin) with a low NADPH-regenerating system consisting of 0.0082 mM NADP^+, 0.41 mM glucose 6-phosphate, 0.41 mM magnesium chloride and 0.4 units/ml glucose-6-phoshate dehydrogenase. The incubation time was 45 min and the incubations were quenched by addition of 0.075 ml 80% Acetonitrile 20% 0.5 M Tris base. All chemicals were of analytical grade from Sigma (St. Louis, Mo.). […] The IC50 values were calculated by linear interpolation.

Data set [1] has as its target T2, human D2 receptor (Homo sapiens, UniProt P14416).
T2 construct: expressed in transfected cells; host or cells: CHO cells
As to the kind of experiment: DA D2 receptor binding ([3H]-Spiperone). The protocol: (§1) For all assays: Results are expressed as percent inhibition of control specific binding and the IC50 values (concentration causing a half-maximal inhibition of control specific binding) are determined by non-linear regression analysis using Hill equation curve fitting. The inhibition constants (Ki) were calculated from the Cheng Prusoff equation Ki=IC50/(1+(L/KD)), where L equals the concentration of radioligand in the assay) and KD equals the affinity of the radioligand for the receptor.
CHO cells expressing approximately 800 fmol/mg human recombinant D2 receptors were generated standard stable transfection techniques. […] Total binding was determined in the presence of buffer and non-specific binding was determined in the presence of 10 μM haloperidol. The mixture was incubated for 30 minutes at 37° C., cooled briefly on ice. Bound and free radioactivity was separated by vacuum filtration on GF/C filters pretreated with 0.1% Polyetyleneime (PEI) and filters were counted in a scintillation counter.

For another data set, the system named is alpha-1 adrenoceptors. The data set is described as follows: Alpha-1 adrenoceptor binding ([3H]Prazosin). Also on record: species or system rat. The protocol: as §1
Chinese hamster ovary (CHO) cell lines expressing rat alpha1d and Baby hamster Kidney (BHK) cells expressing bovine alpha1a were generated using standard stable transfection techniques. The Rat-1 cell line expressing the hamster alpha1b receptor was obtained from University of Utah, Salt Lake City, Utah. […] Total binding was determined using assay buffer and non-specific binding was defined in the presence of 1 μM WB-4101 for all subtypes of alpha1 receptors. […] In all assays bound and free radioactivity were separated by vacuum filtration on GF/B filters pretreated with Polyetyleneimine (PEI) and counted in a scintillation counter.
By this method, the inhibition by drugs of the binding of [^3H]Prazosin (0.25 nM) to alpha-1 receptors in membranes from rat brain is determined in vitro. […]

Data set [2] has as its target T2, human D2 receptor. As to the kind of experiment: DA D2 efficacy assay, inhibition of D2 mediated inhibition of cAMP formation in CHO cells. Type of data set: cell-based. As for the experimental part: The ability of the compounds to inhibit the D2 receptor mediated inhibition of cAMP formation in CHO cells transfected with the human D2 receptor was measure as follows.
Cells were seeded in 96 well plates at a concentration of 8000 cells/well 3 days prior to the experiment. On the day of the experiment the cells were washed once in preheated G buffer (1 mM MgCl2, 0.9 mM CaCl2, 1 mM IBMX in PBS) and the assay was initiated by addition of 100 μl of a mixture of 1 μM quinpirole, 10 μM forskolin and test compound in G buffer. The cells were incubated 20 minutes at 37° C. and the reaction was stopped by the addition of 100 μl S buffer (0.1 M HCl and 0.1 mM CaCl2) and the plates were placed at 4° C. for 1 hour. 68 μl N buffer (0.15 M NaOH and 60 mM NaAc) were added and the plates were shaken for 10 minutes. 60 μl of the reaction were transferred to cAMP FlashPlates (DuPont NEN) containing 40 μl 60 mM NaAc pH 6.2 and 100 μl IC mix (50 mM NaAc pH 6.2, 0.1% NaAzid, 12 mM CaCl2, 1% BSA and 0.15 μCi/ml ^125I-cAMP) were added. Following an 18-hour incubation at 4° C. the plates were washed once and counted in a Wallac TriLux counter.
In general terms: Changes in cAMP serve as a functional read-out for many G protein-coupled receptors.

For a further data set, the target named is T3, 5-HT2A receptors (Homo sapiens, UniProt P28223).
T3 construct: expressed in transfected cells; host or cells: CHO cells
The data set is described as follows: Serotonin 5-HT2A efficacy assay (Ca2+ fluorescence, CHO cells). The data set is classed as cell-based. The protocol: 2 or 3 days before the experiment, CHO cells expressing 250 fmol/mg S-HT2A receptors are plated at a density sufficient to yield a mono-confluent layer on the day of the experiment. The cells are dye loaded (Ca^2+-kit from Molecular Devices and using Hank's balanced salt w/o phenol red, added 20 mM HEPES and pH adjusted to 7.4 with 2M NaOH as assaybuffer) for 60 minutes at 37° C. in a 5% CO2 incubator at 95% humidity. Lacer intensity is set to a suitable level to obtain basal values of approximately 8000-10000 fluorescence units. The variation in basal fluorescence should be less than 10%. EC50 values are assessed using increasing concentrations of test compound covering at least 3 decades. IC50 values are assessed challenging the same range of concentrations of test substances with EC85 of 5-HT. Test substances are added to the cells 5 minutes before the 5-HT. […] Maximum inhibition is the level of inhibition the curve reaches. It is expressed as the percentage inhibition at that level and used to distinguish full and partial antagonists.

Data set [3] in a line: QT-interval in the alpha-chloralose anaesthetised rabbit. The data set is classed as in vivo. As for the experimental part: The model described in the following was originally designed as a proarrhytmic model by Carlsson et al, [J Cardiovasc Pharmacol. 1990;16:276-85.] and has been modified to fit into screening set-up as described below under “animal preparation”.
Male rabbits (HsdIf:NZW, outbreed) weighing 2.0-2.8 kg were purchased from Harlan (The Netherlands). Individual body weights were measured and recorded on the day of experiment. […]
ECG, blood pressure and HR were continuously recorded on a Maclab 8/s using the Chart software v3.6.1 for the Macintosh computer. […] Effects on the electrocardiogram (PQ-, QRS-, QT-, QTc-intervals and heart rate) and mean arterial blood pressure (MAP) were recorded and measured electronically.

Data set [4] deals with T4, human D1 receptors (Homo sapiens, UniProt P21728). As to the kind of experiment: DA D1 receptor binding ([3H]-SCH23390, Cerep). Also noted: host or cells: CHO cells (membranes). As for the experimental part: For all assays: Results are expressed as percent inhibition of control specific binding and the IC50 values (concentration causing a half-maximal inhibition of control specific binding) are determined by non-linear regression analysis using Hill equation curve fitting. The inhibition constants (Ki) were calculated from the Cheng Prusoff equation Ki=IC50/(1+(L/KD)), where L equals the concentration of radioligand in the assay) and KD equals the affinity of the radioligand for the receptor. Affinities towards human D1 receptors were determined at the contract laboratory Cerep using the catalog reference assay no 803-1h. Membranes from CHO cells expressing human recombinant D1 receptors were used. 0.3 nM [^3H]-SCH23390 was used as radioligand and compounds were tested in a serial dilution concurrently with the reference compound SCH23390 in order to assess the assay suitability. Aliqouts were incubates at 22° C. for 60 min and bound radioactivity are measured with a liquid scintillation counter. Specific control binding to the D1 receptors was defined as the difference between the total binding determined without compound present and the non-specific binding determined in the presence of 1 μm SCH 23390.

In data set [5] the target is T4, human D1 receptors. As to the kind of experiment: DA D1 efficacy assay, inhibition of D1 mediated cAMP formation in CHO cells. Also noted: expressed in transfected cells; host or cells: CHO cell line generated in-house. Type of data set: cell-based. The protocol:
The ability of the compounds to inhibit the D1 receptor mediated cAMP formation in a CHO cell line generated in-house stably expressing the human recombinant D1 receptor was measured as follows. Cells were seeded in 96-well plates at a concentration of 11000 cells/well 3 days prior to the experiment. On the day of the experiment the cells were washed once in preheated G buffer (1 mM MgCl2, 0.9 mM CaCl2, 1 mM IBMX in PBS) and the assay was initiated by addition of 100 μl of a mixture of 30 nM A68930 and test compound diluted in G buffer. The cells were incubated for 20 minutes at 37° C. and the reaction was stopped by the addition of 100 μl S buffer (0.1 M HCl and 0.1 mM CaCl2) and the plates were placed at 4° C. for 1 hour. 68 μl N buffer (0.15 M NaOH and 60 mM NaAc) was added and the plates were shaken for 10 minutes. 60 μl of the reaction were transferred to cAMP FlashPlates (DuPont NEN) containing 40 μl 60 mM NaAc pH 6.2 and 100 μl IC mix (50 mM NaAc pH 6.2, 0.1% NaAzid, 12 mM CaCl2, 1% BSA and 0.15 μCi/ml ^125I-cAMP) were added. Following an 18-hour incubation at 4° C. the plates were washed once and counted in a Wallac TrLux counter.

A further data set concerns D1/D2. To be noted: cited from earlier work.
The test system of a further data set is D1 and D2. Conditions: cited from earlier work.
Another data set relates to 5-HT2. Conditions: cited from earlier work.
The subject of another data set is α1 adrenoceptors. Conditions: cited from earlier work.

Molecules are shown by their SMILES.

T1 sequence (P10635 whole entry): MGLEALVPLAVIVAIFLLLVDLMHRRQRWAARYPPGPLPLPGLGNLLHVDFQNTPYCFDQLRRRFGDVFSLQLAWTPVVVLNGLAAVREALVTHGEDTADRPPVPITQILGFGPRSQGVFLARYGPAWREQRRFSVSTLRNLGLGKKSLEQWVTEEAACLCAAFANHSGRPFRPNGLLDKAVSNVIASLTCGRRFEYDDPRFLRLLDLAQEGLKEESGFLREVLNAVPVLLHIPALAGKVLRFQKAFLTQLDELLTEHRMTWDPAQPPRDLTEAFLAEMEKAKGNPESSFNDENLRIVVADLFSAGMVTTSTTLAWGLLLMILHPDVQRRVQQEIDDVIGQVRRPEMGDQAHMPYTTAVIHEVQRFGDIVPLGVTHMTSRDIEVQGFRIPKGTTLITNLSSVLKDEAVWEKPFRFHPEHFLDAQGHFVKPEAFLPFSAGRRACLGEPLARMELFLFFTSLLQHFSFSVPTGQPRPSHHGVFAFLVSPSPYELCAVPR
T4 sequence (P21728 whole entry): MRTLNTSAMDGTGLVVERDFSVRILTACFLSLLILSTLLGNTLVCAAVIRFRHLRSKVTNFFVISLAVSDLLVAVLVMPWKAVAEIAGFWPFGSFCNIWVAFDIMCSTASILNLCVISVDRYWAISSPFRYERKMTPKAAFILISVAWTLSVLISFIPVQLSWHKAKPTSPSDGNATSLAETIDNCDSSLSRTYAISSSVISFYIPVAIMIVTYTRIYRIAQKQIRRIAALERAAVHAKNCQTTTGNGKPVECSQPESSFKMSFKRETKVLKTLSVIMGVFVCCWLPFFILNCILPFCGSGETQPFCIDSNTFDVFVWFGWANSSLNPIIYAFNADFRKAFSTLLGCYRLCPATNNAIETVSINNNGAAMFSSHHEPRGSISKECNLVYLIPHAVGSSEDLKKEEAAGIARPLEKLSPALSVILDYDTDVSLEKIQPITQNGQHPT
T2 sequence (P14416 whole entry): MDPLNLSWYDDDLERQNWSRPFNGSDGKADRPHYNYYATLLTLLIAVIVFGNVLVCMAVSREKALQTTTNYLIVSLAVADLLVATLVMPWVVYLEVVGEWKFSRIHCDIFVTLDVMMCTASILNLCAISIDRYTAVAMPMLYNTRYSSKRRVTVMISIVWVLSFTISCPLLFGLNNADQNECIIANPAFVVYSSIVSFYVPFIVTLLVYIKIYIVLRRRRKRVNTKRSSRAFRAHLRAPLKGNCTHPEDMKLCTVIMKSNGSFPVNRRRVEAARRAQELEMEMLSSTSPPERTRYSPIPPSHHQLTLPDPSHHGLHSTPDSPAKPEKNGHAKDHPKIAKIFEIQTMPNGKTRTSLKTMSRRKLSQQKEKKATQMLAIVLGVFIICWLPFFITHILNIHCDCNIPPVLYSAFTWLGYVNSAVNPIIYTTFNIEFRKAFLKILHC
T3 sequence (P28223 whole entry): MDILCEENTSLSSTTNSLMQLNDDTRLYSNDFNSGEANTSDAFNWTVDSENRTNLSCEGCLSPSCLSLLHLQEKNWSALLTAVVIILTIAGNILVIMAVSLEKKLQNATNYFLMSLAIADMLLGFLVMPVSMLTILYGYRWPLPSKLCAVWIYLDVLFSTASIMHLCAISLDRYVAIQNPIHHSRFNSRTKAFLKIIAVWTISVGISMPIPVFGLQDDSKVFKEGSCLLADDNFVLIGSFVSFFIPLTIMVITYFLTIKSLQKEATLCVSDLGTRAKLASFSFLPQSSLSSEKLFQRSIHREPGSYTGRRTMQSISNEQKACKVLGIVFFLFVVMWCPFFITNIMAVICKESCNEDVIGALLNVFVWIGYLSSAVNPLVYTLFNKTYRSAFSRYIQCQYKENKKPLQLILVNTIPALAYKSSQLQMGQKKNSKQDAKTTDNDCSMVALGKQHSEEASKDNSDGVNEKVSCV

Regarding `CC1(C)CN([C@@H]2C[C@@H](c3ccccc3)c3ccc(Cl)cc32)CCN1` (racemic) [racemate of the compound of the present invention, trans-1-(6-chloro-3-phenylindan-1-yl)-3,3-dimethylpiperazine], the “inhibition of CYP2D6” value at human CYP2D6 is “considerable more potent”.
Turning to `CC1(C)CN([C@@H]2C[C@@H](c3ccccc3)c3ccc(Cl)cc32)CCN1` [Compound I, trans-1-((1R,3S)-6-chloro-3-phenylindan-1-yl)-3,3-dimethylpiperazine], at human D2 receptor [1], the “affinity for dopamine D2 receptors” value is reported as “high affinity”. Moreover, the “affinity for alfa1 adrenoceptors” value with alpha-1 adrenoceptors is recorded as “high affinity”. In addition, the “functional activity at dopamine D2 receptors” value at human D2 receptor [2] is listed as “antagonist”. At 5-HT2A receptors, the “functional activity at serotonin 5-HT2a receptors” value was “antagonist”. Further, the “inhibition of CYP2D6” value on human CYP2D6 was “relatively weak inhibitor”. Also, in [3], the “prolonging effect on the QT-interval in the electrocardiogram (ECG)” value was “relatively low prolonging effect”. The “affinity for dopamine D1 receptors” value at human D1 receptors [4] was “high affinity”. Moreover, the “functional activity at dopamine D1 receptors” value at human D1 receptors [5] is “antagonist”.
For `CN1CCN([C@@H]2C[C@@H](c3ccccc3)c3ccc(Cl)cc32)CC1(C)C` [(−)-38], in the data set on D1/D2, the “D1/D2 antagonism in vitro” value is listed as “potent D1/D2 antagonists showing some D1 selectivity”. In addition, the “D1 and D2 antagonism in vivo” value in the data set with D1 and D2 is “equipotent as D1 and D2 antagonist”. In addition, the 5-HT2 antagonism result with 5-HT2 is “potent 5-H T2 antagonist”. Moreover, in the data set with α1 adrenoceptors, the “affinity for α1 adrenoceptors” value is listed as “high affinity”.
